Test results from ChEMBL document CHEMBL1201862, “PubChem BioAssay data set” (2004).
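In this assay, cells in 96-well plates receive the compound at five concentrations for 48 hours. Endpoints are linearly interpolated between the surrounding concentrations. At the GI50, growth is halved.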 Calls of active or inactive are those of the source. No stated cut-off is given here; in the data, active = GI50 up to about 1.1 µM and inactive = higher.

Experiments:
Assay in all cases: inhibition of tumour cell growth, NCI panel, 48 h
SK-MEL-5 = system: SK-MEL-5
SF-539 = system: SF-539
LXFL 529 = system: LXFL 529
DMS-273 = system: DMS-273
SF-295 = system: SF-295
ACHN = system: ACHN
SNB-78 = system: SNB-78
DLD-1 = system: DLD-1
HCT-116 = system: HCT-116
SK-MEL-2 = system: SK-MEL-2
OVCAR-5 = system: OVCAR-5
NCI-H522 = system: NCI-H522
KM12 = system: KM12
MCF7 = system: MCF7
NCI/ADR-RES = system: NCI/ADR-RES
DMS-114 = system: DMS-114
MDA-MB-435 = system: MDA-MB-435
BT-549 = system: BT-549
MDA-N = system: MDA-N
MDA-MB-231 = system: MDA-MB-231

Row | SMILES | GI50 (SK-MEL-5) | GI50 (SF-539) | GI50 (LXFL 529) | GI50 (DMS-273) | GI50 (SF-295) | GI50 (ACHN) | GI50 (SNB-78) | GI50 (DLD-1) | GI50 (HCT-116) | GI50 (SK-MEL-2) | GI50 (OVCAR-5) | GI50 (NCI-H522) | GI50 (KM12) | GI50 (MCF7) | GI50 (NCI/ADR-RES) | GI50 (DMS-114) | GI50 (MDA-MB-435) | GI50 (BT-549) | GI50 (MDA-N) | GI50 (MDA-MB-231)
1 | COc1ccc(C(c2ccc(C(C)C)cc(=O)c2O)c2c(O)cc3oc(-c4ccccc4)cc(=O)c3c2O)cc1 (stereo not given) | 11.5 µM (inactive) | 3.05 µM (inactive) | 14 µM (inactive) | 5.08 µM (inactive) | 4.93 µM (inactive) | 4.21 µM (inactive) | 20.8 µM (inactive) | 4.11 µM (inactive) | 2.81 µM (inactive) | – | – | – | – | – | – | – | – | – | – | –
2 | CC1OC(=O)C(O)=C1O (stereo not given) | > 100 µM (inactive) | > 100 µM (inactive) | > 100 µM (inactive) | > 100 µM (inactive) | > 100 µM (inactive) | > 100 µM (inactive) | > 100 µM (inactive) | – | > 100 µM (inactive) | > 100 µM (inactive) | > 100 µM (inactive) | > 100 µM (inactive) | > 100 µM (inactive) | – | – | – | – | – | – | –
3 | Cc1nc2ccc(C(F)(F)F)cc2nc1Nc1ccc(Cl)c(Cl)c1 | – | 14.1 µM (inactive) | 7.87 µM (inactive) | 4.81 µM (inactive) | 3.4 µM (inactive) | 11.3 µM (inactive) | 14.7 µM (inactive) | 9.42 µM (inactive) | 10.5 µM (inactive) | 14.3 µM (inactive) | 15.4 µM (inactive) | – | – | – | – | – | – | – | – | –
4 | C[C@H]1COC(c2ccccn2)=N1 | > 100 µM (inactive) | > 100 µM (inactive) | – | > 100 µM (inactive) | > 100 µM (inactive) | – | > 100 µM (inactive) | > 100 µM (inactive) | > 100 µM (inactive) | > 100 µM (inactive) | > 100 µM (inactive) | > 100 µM (inactive) | > 100 µM (inactive) | > 100 µM (inactive) | > 100 µM (inactive) | – | – | – | – | –
5 | CC1CCC(=O)C(C(O)CC2CC(=O)N(c3ccccc3)C(=O)C2)C1 (stereo not given) | – | > 100 µM (inactive) | > 100 µM (inactive) | > 100 µM (inactive) | > 100 µM (inactive) | > 100 µM (inactive) | > 100 µM (inactive) | > 100 µM (inactive) | > 100 µM (inactive) | – | > 100 µM (inactive) | > 100 µM (inactive) | > 100 µM (inactive) | – | – | > 100 µM (inactive) | – | – | – | –
6 | NCCCCNCCCNC(=O)c1nc(-c2nc(CCN)sc2Cl)sc1Cl | > 100 µM (inactive) | 48.8 µM (inactive) | 3.46 µM (inactive) | 50.4 µM (inactive) | 59.8 µM (inactive) | > 100 µM (inactive) | > 100 µM (inactive) | 83 µM (inactive) | 9.48 µM (inactive) | – | > 100 µM (inactive) | 21 µM (inactive) | 27.5 µM (inactive) | – | – | 18.8 µM (inactive) | – | – | – | –
7 | CCCc1[nH]c(SCCCCCCCCSc2nc(-c3ccc(F)cc3)c(CCC)[nH]2)nc1-c1ccc(F)cc1 | 4.68 µM (inactive) | 6.21 µM (inactive) | 7.46 µM (inactive) | 44.3 µM (inactive) | – | 54.1 µM (inactive) | 26.2 µM (inactive) | – | 5.42 µM (inactive) | 24.2 µM (inactive) | 33 µM (inactive) | – | 35.2 µM (inactive) | – | – | 3.94 µM (inactive) | – | – | – | –
8 | CC1=N/C(=C/c2ccc3c(c2)OCO3)C(=O)O1 | > 100 µM (inactive) | > 100 µM (inactive) | > 100 µM (inactive) | > 100 µM (inactive) | – | > 100 µM (inactive) | > 100 µM (inactive) | – | > 100 µM (inactive) | > 100 µM (inactive) | > 100 µM (inactive) | > 100 µM (inactive) | > 100 µM (inactive) | – | – | > 100 µM (inactive) | – | – | – | –
9 | CCNCCCCNCC | > 3750 µM (inactive) | > 3750 µM (inactive) | – | > 2550 µM (inactive) | > 3750 µM (inactive) | – | > 3750 µM (inactive) | > 3750 µM (inactive) | > 2480 µM (inactive) | > 3750 µM (inactive) | > 3750 µM (inactive) | > 3240 µM (inactive) | > 3750 µM (inactive) | > 3750 µM (inactive) | > 3750 µM (inactive) | > 3600 µM (inactive) | – | – | – | –
10 | C#C[C@H](CCCC)OC(=O)N[C@H](C)c1ccccc1 | 21.7 µM (inactive) | – | 36.3 µM (inactive) | 38.8 µM (inactive) | 75 µM (inactive) | 41.9 µM (inactive) | 70 µM (inactive) | 55.2 µM (inactive) | 24 µM (inactive) | 36.1 µM (inactive) | 48 µM (inactive) | 29.2 µM (inactive) | 51.3 µM (inactive) | – | – | 28.2 µM (inactive) | – | – | – | –
11 | CC(=O)C1CC(C)=CCC12C(=O)Nc1ccccc12 (stereo not given) | > 100 µM (inactive) | > 100 µM (inactive) | > 100 µM (inactive) | > 100 µM (inactive) | > 100 µM (inactive) | > 100 µM (inactive) | – | > 100 µM (inactive) | > 100 µM (inactive) | > 100 µM (inactive) | > 100 µM (inactive) | > 100 µM (inactive) | > 100 µM (inactive) | – | – | > 100 µM (inactive) | – | – | – | –
12 | COc1ccc(/C=c2/s/c(=C(\C#N)c3nc4ccccc4[nH]3)n(-c3ccccc3)c2=O)cc1 | > 92.7 µM (inactive) | 25.1 µM (inactive) | 2.32 µM (inactive) | 36.8 µM (inactive) | 15.3 µM (inactive) | > 82.4 µM (inactive) | – | > 100 µM (inactive) | 24.7 µM (inactive) | > 77.6 µM (inactive) | > 100 µM (inactive) | > 60.3 µM (inactive) | 56.6 µM (inactive) | 45.1 µM (inactive) | 5.06 µM (inactive) | 91 µM (inactive) | 31.8 µM (inactive) | 21 µM (inactive) | 30.8 µM (inactive) | 18.7 µM (inactive)
13 | NC(=O)c1ccccc1NC(=O)C(=O)Nc1n[nH]c(N)n1 | > 100 µM (inactive) | > 100 µM (inactive) | > 100 µM (inactive) | > 100 µM (inactive) | > 100 µM (inactive) | > 100 µM (inactive) | > 100 µM (inactive) | > 100 µM (inactive) | > 100 µM (inactive) | > 100 µM (inactive) | > 100 µM (inactive) | > 100 µM (inactive) | > 100 µM (inactive) | – | – | – | – | – | – | –
14 | CC1OC(n2cc(F)c(=O)[nH]c2=O)CCC1O (stereo not given) | > 56.2 µM (inactive) | 29.2 µM (inactive) | > 100 µM (inactive) | > 100 µM (inactive) | > 84.5 µM (inactive) | > 95.9 µM (inactive) | > 100 µM (inactive) | > 100 µM (inactive) | 78 µM (inactive) | > 100 µM (inactive) | > 100 µM (inactive) | > 95.1 µM (inactive) | > 96.2 µM (inactive) | 30.1 µM (inactive) | > 100 µM (inactive) | – | > 100 µM (inactive) | > 100 µM (inactive) | 91.2 µM (inactive) | > 100 µM (inactive)
15 | COc1ccc2nc3c(C(=O)NCCN(C)C)cccc3cc2c1 | 1.64 µM (inactive) | 3.15 µM (inactive) | – | 1.28 µM (inactive) | 1.96 µM (inactive) | – | 3.76 µM (inactive) | 2.16 µM (inactive) | 0.908 µM (active) | 2.49 µM (inactive) | 2.1 µM (inactive) | – | 2.96 µM (inactive) | 1.35 µM (inactive) | 1.41 µM (inactive) | 1.91 µM (inactive) | – | – | – | –
16 | COc1cc(/C=C2/C(=O)NC(Cc3cc(OC)c(OC)c(C)c3OC)C(=O)N2Cc2ccccc2)c(OC)c(C)c1OC (stereo not given) | 43.7 µM (inactive) | 75 µM (inactive) | 34.8 µM (inactive) | 51.5 µM (inactive) | 50.5 µM (inactive) | 61.7 µM (inactive) | – | 72.3 µM (inactive) | > 100 µM (inactive) | 30.2 µM (inactive) | 93.8 µM (inactive) | 18.2 µM (inactive) | 55.5 µM (inactive) | – | – | 38.2 µM (inactive) | – | – | – | –
17 | COc1cc(/C=C\c2cccnc2)cc(OC)c1OC | 18.9 µM (inactive) | 36.6 µM (inactive) | 48.1 µM (inactive) | 33.1 µM (inactive) | 36.6 µM (inactive) | > 100 µM (inactive) | > 100 µM (inactive) | 72.1 µM (inactive) | 58.2 µM (inactive) | – | > 100 µM (inactive) | 25.3 µM (inactive) | 36.1 µM (inactive) | – | – | 46.8 µM (inactive) | – | – | – | –
18 | CC(=O)OC(C)C(=O)C1c2cccc(O)c2C(=O)c2c(O)cc(C)cc21 (stereo not given) | 0.357 µM (active) | 0.254 µM (active) | – | 0.634 µM (active) | 0.344 µM (active) | 0.579 µM (active) | 0.753 µM (active) | 1.75 µM (inactive) | 0.31 µM (active) | 0.429 µM (active) | 1.31 µM (inactive) | 1.52 µM (inactive) | 0.33 µM (active) | – | – | 0.188 µM (active) | – | – | – | –
19 | O=C(CC/C(C/C(=N/O)c1ccc(F)cc1)=N/O)N(Cc1ccccc1)Cc1ccccc1 | > 100 µM (inactive) | > 100 µM (inactive) | > 100 µM (inactive) | > 100 µM (inactive) | > 100 µM (inactive) | > 100 µM (inactive) | – | > 100 µM (inactive) | > 100 µM (inactive) | > 100 µM (inactive) | > 100 µM (inactive) | > 100 µM (inactive) | > 100 µM (inactive) | – | – | > 100 µM (inactive) | – | – | – | –
20 | COc1ccc2c(c1)O[C@H]1c3ccc(O)cc3OC[C@@H]21 | 17.3 µM (inactive) | 20.7 µM (inactive) | 25.4 µM (inactive) | 30.9 µM (inactive) | 35.2 µM (inactive) | 27.2 µM (inactive) | 29.2 µM (inactive) | 34.8 µM (inactive) | 27.6 µM (inactive) | 26.5 µM (inactive) | 48.6 µM (inactive) | 22.7 µM (inactive) | – | – | – | – | – | – | – | –
